Laboratory results: patent US20240109903A1, “SUBSTITUTED HETEROCYCLES FOR TREATING CANCER” (Northwestern University, priority 2022, published 2024)

Legend:
Assay type in all cases: cell-based
[1] = tested on: TK-10; test: NCI 60 five-dose screen TK-10; details: Homo sapiens, five-dose
[2] = tested on: A498; test: NCI 60 five-dose screen A498; details: Homo sapiens, five-dose
[3] = tested on: MDA-MB-435; test: NCI 60 five-dose screen MDA-MB-435; details: Homo sapiens, five-dose
[4] = tested on: DU-145; test: NCI 60 five-dose screen DU-145; details: Homo sapiens, five-dose
[5] = tested on: MALME-3M; test: NCI 60 five-dose screen MALME-3M; details: Homo sapiens, MALME-3M, five-dose
[6] = tested on: SW-620; test: NCI 60 five-dose screen SW-620; details: Homo sapiens, five-dose
[7] = tested on: HCT-116; test: NCI 60 five-dose screen HCT-116; details: Homo sapiens, five-dose
[8] = tested on: CAKI-1; test: NCI 60 five-dose screen CAKI-1; details: Homo sapiens, five-dose
[9] = tested on: HS 578T; test: NCI 60 five-dose screen HS 578T; details: Homo sapiens, five-dose
[10] = tested on: EKVX; test: NCI 60 five-dose screen EKVX; details: Homo sapiens, five-dose
[11] = tested on: HL-60(TB); test: NCI 60 five-dose screen HL-60(TB); details: Homo sapiens, five-dose
[12] = tested on: SK-MEL-5; test: NCI 60 five-dose screen SK-MEL-5; details: Homo sapiens, five-dose
[13] = tested on: MCF7; test: NCI 60 five-dose screen MCF7; details: Homo sapiens, five-dose
[14] = tested on: M14; test: NCI 60 five-dose screen M14; details: Homo sapiens, five-dose
[15] = tested on: KM12; test: NCI 60 five-dose screen KM12; details: Homo sapiens, five-dose
[16] = tested on: OVCAR-5; test: NCI 60 five-dose screen OVCAR-5; details: Homo sapiens, five-dose
[17] = tested on: ACHN; test: NCI 60 five-dose screen ACHN; details: Homo sapiens, five-dose
[18] = tested on: NCI/ADR-RES; test: NCI 60 five-dose screen NCI/ADR-RES; details: Homo sapiens, five-dose
[19] = tested on: SK-MEL-2; test: NCI 60 five-dose screen SK-MEL-2; details: Homo sapiens, five-dose
[20] = tested on: K-562; test: NCI 60 five-dose screen K-562; details: Homo sapiens, K562, five-dose
[21] = tested on: HOP-92; test: NCI 60 five-dose screen HOP-92; details: Homo sapiens, five-dose
[22] = tested on: BT-549; test: NCI 60 five-dose screen BT-549; details: Homo sapiens, five-dose
[23] = tested on: HCT-15; test: NCI 60 five-dose screen HCT-15; details: Homo sapiens, five-dose
[24] = tested on: CCRF-CEM; test: NCI 60 five-dose screen CCRF-CEM; details: Homo sapiens, five-dose
[25] = tested on: NCI-H522; test: NCI 60 five-dose screen NCI-H522; details: Homo sapiens, five-dose
[26] = tested on: PC-3; test: NCI 60 five-dose screen PC-3; details: Homo sapiens, five-dose
[27] = tested on: OVCAR-3; test: NCI 60 five-dose screen OVCAR-3; details: Homo sapiens, five-dose
[28] = tested on: HT29; test: NCI 60 five-dose screen HT29; details: Homo sapiens, HT-29, five-dose
[29] = read-out: LC50 (the source's name) (converted)
[30] = read-out: LC50 (the source's name)

For `OC1CCC(Cn2c(C(F)(F)F)cc3c(Cl)ncnc32)CC1` (stereo not shown) [NUCC-0226689], the GI50 [1] was 100 µM, the IC50 [1] was 100 µM and the IC (TGI) [1] was 100 µM. The CC50 [1, 29] was no less than 100 µM, the GI50 [2] was 100 µM and the IC50 [2] was 100 µM. The IC (TGI) [2] was 100 µM, the CC50 [2, 29] was no less than 100 µM and the GI50 [3] was 12 µM. It also gave an IC50 [3] of 20 µM, an IC (TGI) [3] of 25.7 µM and a CC50 [3, 29] of 55 µM. For the same molecule, the GI50 [4] was 7.94 µM, the IC50 [4] was 13.8 µM and the IC (TGI) [4] was 20.4 µM. It also gave a CC50 [4, 29] of 46.8 µM, a GI50 [5] of 17.8 µM and an IC50 [5] of 85.1 µM. The IC (TGI) [5] was 64.6 µM, the CC50 [5, 29] was no less than 100 µM and the GI50 [6] was 12.3 µM. It also gave an IC50 [6] of 17 µM, an IC (TGI) [6] of 38.9 µM and a CC50 [6, 29] of no less than 100 µM. For the same molecule, the GI50 [7] was 3.55 µM, the IC50 [7] was 4.17 µM and the IC (TGI) [7] was 15.8 µM. For the same molecule, the CC50 [7, 29] was 72.4 µM, the GI50 [8] was 16.6 µM and the IC50 [8] was 33.1 µM. It also gave an IC (TGI) [8] of 52.5 µM, a CC50 [8, 29] of no less than 100 µM and a GI50 [9] of 13.8 µM. The IC50 [9] was 93.3 µM, the IC (TGI) [9] was 53.7 µM and the CC50 [9, 30] was no less than 100 µM. It also gave a GI50 [10] of 12.9 µM, an IC50 [10] of 29.5 µM and an IC (TGI) [10] of 38.9 µM. For the same molecule, the CC50 [10, 29] was no less than 100 µM, the GI50 [11] was 2.63 µM and the IC50 [11] was 5.01 µM. For the same molecule, the IC (TGI) [11] was 8.91 µM, the CC50 [11, 29] was no less than 100 µM and the GI50 [12] was 4.79 µM. It also gave an IC50 [12] of 8.32 µM, an IC (TGI) [12] of 16.6 µM and a CC50 [12, 29] of 42.7 µM. The GI50 [13] was 37.2 µM, the IC50 [13] was 52.5 µM and the IC (TGI) [13] was 100 µM. The CC50 [13, 29] was no less than 100 µM, the GI50 [14] was 4.9 µM and the IC50 [14] was 8.71 µM. It also gave an IC (TGI) [14] of 26.9 µM, a CC50 [14, 29] of no less than 100 µM and a GI50 [15] of 26.3 µM. For the same molecule, the IC50 [15] was 37.2 µM, the IC (TGI) [15] was 93.3 µM and the CC50 [15, 29] was no less than 100 µM. It also gave a GI50 [16] of 100 µM, an IC50 [16] of 100 µM and an IC (TGI) [16] of 100 µM. For the same molecule, the CC50 [16, 29] was no less than 100 µM, the GI50 [17] was 8.71 µM and the IC50 [17] was 15.5 µM. For the same molecule, the IC (TGI) [17] was 50.1 µM, the CC50 [17, 29] was no less than 100 µM and the GI50 [18] was 26.3 µM. For the same molecule, the IC50 [18] was 43.7 µM, the IC (TGI) [18] was 100 µM and the CC50 [18, 29] was no less than 100 µM. The GI50 [19] was 13.2 µM, the IC50 [19] was 28.8 µM and the IC (TGI) [19] was 28.2 µM. It also gave a CC50 [19, 29] of 58.9 µM, a GI50 [20] of 2.88 µM and an IC50 [20] of 3.55 µM. The IC (TGI) [20] was 100 µM, the CC50 [20, 30] was no less than 100 µM and the GI50 [21] was 20.4 µM. The IC50 [21] was 74.1 µM, the IC (TGI) [21] was 64.6 µM and the CC50 [21, 29] was no less than 100 µM. It also gave a GI50 [22] of 13.2 µM, an IC50 [22] of 28.2 µM and an IC (TGI) [22] of 28.2 µM. It also gave a CC50 [22, 29] of 58.9 µM, a GI50 [23] of 3.72 µM and an IC50 [23] of 4.79 µM. The IC (TGI) [23] was 20 µM, the CC50 [23, 29] was no less than 100 µM and the GI50 [24] was 5.62 µM. It also gave an IC50 [24] of 9.33 µM, an IC (TGI) [24] of 100 µM and a CC50 [24, 30] of no less than 100 µM. For the same molecule, the GI50 [25] was 1.55 µM, the IC50 [25] was 3.09 µM and the IC (TGI) [25] was 3.55 µM. The CC50 [25, 29] was 8.13 µM, the GI50 [26] was 8.91 µM and the IC50 [26] was 15.5 µM. For the same molecule, the IC (TGI) [26] was 36.3 µM, the CC50 [26, 29] was no less than 100 µM and the GI50 [27] was 8.13 µM. For the same molecule, the IC50 [27] was 19.1 µM, the IC (TGI) [27] was 28.8 µM and the CC50 [27, 29] was 97.7 µM. The GI50 [28] was 15.5 µM, the IC50 [28] was 21.9 µM and the IC (TGI) [28] was 100 µM. For the same molecule, the CC50 [28, 29] was no less than 100 µM.
